# Entries after “also recorded” stand apart in the source; their conditions may differ.
# Assays:
# innate immune response = settings: cited from earlier work
# NLRP1 inflammasome = format: cell-based, human
# ZYG11B [1] = settings: cited from earlier work
# ZYG11B [2] = format: cell-based, human
substance,measurement,setting,value
"ORF10: SARS-CoV-2 protein ORF10, overexpressed",effect on innate immune response,innate immune response,can suppress the innate immune response
same,effect of ORF10 on inflammasome activation with NLRP1 E133K,NLRP1 inflammasome,no decrease in inflammasome activation
same,inhibition of HRV 3Cpro-mediated activation of wild-type NLRP1,NLRP1 inflammasome,could inhibit HRV 3Cpro-mediated activation of NLRP1
same,interaction with ZYG11B,ZYG11B [1],interacts with ZYG11B
same,ORF10 binding to ZYG11B E644K,ZYG11B [2],decrease the binding
same,ORF10 binding to ZYG11B K515E,ZYG11B [2],substantially enhance binding
same,ORF10 binding to ZYG11B R466A,ZYG11B [2],minimal effect; also recorded: did not strongly affect ORF10 binding

# — publication PMC13379236 (Cell reports, 2026)
